In patent US20150038545A1, “HYDROXYPHENYL PYRROLE COMPOUNDS CONTAINING AN HYDROXAMIC ACID AS HDAC INHIBITORS AND MEDICINAL APPLICATIONS THEREOF” (UNIVERSIDAD DEL PAÍS VASCO, priority 2011, published 2015):

Legend:
Human HDAC11 = biological target: T1, Human HDAC11 (Homo sapiens, UniProt Q96DB2); assay: In vitro HDAC11 inhibition, fluorogenic peptide assay; type: biochemical; details: for IC50: read-out: IC50 (nM) of enzyme activity HDAC11
T1 construct: GST (N); purchased BioMol SE-560
T1 sequence (Q96DB2 1-347): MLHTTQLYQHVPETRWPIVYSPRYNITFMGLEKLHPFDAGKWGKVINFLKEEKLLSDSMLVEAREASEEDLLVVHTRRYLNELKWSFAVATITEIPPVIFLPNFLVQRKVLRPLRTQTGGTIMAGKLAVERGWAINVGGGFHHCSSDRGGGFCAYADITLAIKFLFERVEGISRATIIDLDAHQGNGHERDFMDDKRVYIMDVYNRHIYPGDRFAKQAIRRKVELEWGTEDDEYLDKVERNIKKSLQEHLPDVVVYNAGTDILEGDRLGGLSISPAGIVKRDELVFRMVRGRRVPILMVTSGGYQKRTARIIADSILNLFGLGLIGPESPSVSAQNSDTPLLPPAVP
Experimental: All HDAC assays were performed using acetylated AMC-labeled peptide substrate: • Substrate for isoforms HDAC1, 2, 3, 4, 5, 6, 7, 9, 10, 11 and HeLa nuclear extract assays: Acetylated fluorogenic peptide from p53 residues 379-382 (RHKKAc) (BioMol. Cat. # KI-104). • Substrate for HDAC8 assays: Acetylated fluorogenic peptide from p53 residues 379-382 (RHKAcKAc) (BioMol. Cat. # KI-178).
Enzymes: • HDAC1 assay: 75 nM Human HDAC1 (GenBank Accession No. NM_004964): Full length with C-terminal GST tag, MW=79.9 kDa, expressed by baculovirus expression system in Sf9 cells (BioMol. Cat. # SE-456). • HDAC2 assay: 5 nM Human HDAC2 (GenBank Accession No. Q92769): Full length with C-terminal His tag, MW=60 kDa, expressed by baculovirus expression system in Sf9 cells (BioMol. Cat. # SE-500). • HDAC3 assay: 2.3 nM Human HDAC3/NcoR2 (GenBank Accession No. NM_003883 for HDAC3, GenBank Accession No.NM_006312 for NcoR2): Complex of human HDAC3, full length with C-terminal His tag, MW=49.7 kDa, and human NCOR2, N-terminal GST tag, MW=39 kDa, co-expressed in baculovirus expression system (BioMol. Cat. # SE-507). • HDAC4 assay: 266 nM Human HDAC4 (GenBank Accession No. NM_006037): Amino acids 627-1085 with N-terminal GST tag, MW=75.2 kDa, expressed in baculovirus expression system (BioMol, Hamburg, Germany). • HDAC5 assay: 588 nM Human HDAC5 (GenBank Accession No. NM_001015053): Full length with Nterminal GST tag, MW=150 kDa, expressed by baculovirus expression system in Sf9 cells (BioMol, Hamburg, Germany). • HDAC6 assay: 13 nM Human HDAC6 (GenBank Accession No. BC069243): Full length with N-terminal GST tag, MW=159 kDa, expressed by baculovirus expression system in Sf9 cells (BioMol. Cat. # SE-508). • HDAC7 assay: 962 nM Human HDAC7 (GenBank Accession No. AY302468): Amino acids 518-end with N-terminal GST tag, MW=78 kDa, expressed in baculovirus expression system (BioMol, Hamburg, Germany). • HDAC8 assay: 119 nM Human HDAC8 (GenBank Accession No. NM018486): Full length, MW=42 kDa, expressed in an E. coli expression system (BioMol. […]
The reactions were carried out in a 96-well microplate for fluorometry in a 50 μl reaction volume. […] The reaction was allowed to develop for 45 minutes at 30° C. with 5% CO2; then the fluorescent signal was measured with an excitation wavelength at 360 nm and an emission wavelength at 460 nm in a microplate-reading fluorometer (GeminiXS; Molecular Devices, Sunnyvale, Calif.). […] IC50 was calculated by fitting the experimental data to a dose-response curve. […]

LNCaP = assay: Cancer cell growth inhibition (CellTiter-Glo), LNCaP; type: cell-based, Human; details: Homo sapiens, Prostate Cancer, 72 h treatment
Experimental: Cell culture-based assays were used to evaluate the ability of compounds of the invention to inhibit cancer cell growth.
Cells were obtained from the American Type Culture Collection (ATCC). Cells were cultured at 37° C. with 5% CO2 in the appropriate growth medium (see table below), and harvested respectively during the logarithmic growth period and counted with hemocytometer. The cell viability was examined by trypan blue exclusion. Cell concentrations were adjusted to 5.56×10^4 cells/ml with respective medium.
Stock solutions of test compounds and positive drugs Doxorubicin (Zhejiang, Haizheng, China), Cisplatin (Nanjing Zhiyao, China) and Mitomycin (Zhejiang, Haizheng, China) were prepared in dimethyl sulphoxide (DMSO) or PBS at 20 mM.
In order to determine the IC50 for each compound, experiments were carried out in 96-well plates and the cell lines seeded at a density of 5,000 cells/well. […] All treatments were performed in triplicate. 10 μl of drug solution was added to each well and incubated for 72 hours. At the end of the incubation, 100 μl of the CellTiter-Glo Reagent were added to each well and the contents were mixed for 2 munites on an orbital shaker to induce cell lysis. The plate was incubated at room temperature for 10 minutes to stabilize luminiscent signal, and luminiscent was recorded. […] In order to calculate IC50 values, dose-responsive curves were fitted using nonlinear regression model with a sigmoidal dose response.

Structure (SMILES) | Selectivity against HDAC6 (IC50 HDACx/IC50 HDAC6) HDAC11 (Human HDAC11; IC50 HDAC11/IC50 HDAC6) | IC50 (Human HDAC11) [nM] | IC50 (LNCaP) [µM]
COc1ccc(-c2cc(-c3ccccc3)[nH]c2C(=O)NCCCCCC(=O)NO)cc1 [Compound A, N-[6-(hydroxyamino)-6-oxohexyl]-3-(4-methoxyphenyl)-5-phenyl-1H-pyrrole-2-carboxamide, reference compound] | 34 | 680 | –
O=C(CCCCCNC(=O)c1[nH]c(-c2ccc(O)cc2)cc1-c1ccsc1)NO [Example 6, N-(5-(hydroxycarbamoyl)pentyl)-5-(4-hydroxyphenyl)-3-(3-thienyl)-1H-pyrrole-2-carboxamide] | – | 55 | 0.8
O=C(CCCCCNC(=O)c1[nH]c(-c2ccccc2)cc1-c1ccc(O)cc1)NO [Example 1, N-(6-(hydroxyamino)-6-oxohexyl)-3-(4-hydroxyphenyl)-5-phenyl-1H-pyrrole-2-carboxamide] | – | – | 1.11
O=C(CCCCCNC(=O)c1[nH]c(-c2ccc(O)cc2)cc1-c1ccccc1)NO [Example 2, N-(6-(hydroxyamino)-6-oxohexyl)-5-(4-hydroxyphenyl)-3-phenyl-1H-pyrrole-2-carboxamide] | – | – | 1.77
O=C(CCCCCNC(=O)c1[nH]c(-c2ccc(O)cc2)cc1-c1ccoc1)NO [Example 5, 3-(3-furyl)-N-(5-(hydroxycarbamoyl)pentyl)-5-(4-hydroxy-phenyl)-1H-pyrrole-2-carboxamide] | – | 18 | 0.59
